Source: ChEMBL document CHEMBL1136339, “The C-4 stereochemistry of leucocyanidin substrates for anthocyanidin synthase affects product selectivity” (2003)

How the values were obtained:
[1] = Specific activity of 14CO2 formation from 1-[14C]-2OG corrected for uncoupled turnover in presence of anthocyanin synthase(ANS); type: functional
[2] = Specific activity of 14CO2 formation from 1-[14C]-2OG in presence of anthocyanin synthase(ANS); type: functional

Oc1cc(O)c2c(c1)O[C@H](c1ccc(O)c(O)c1)[C@@H](O)[C@@H]2O
Specific activity [1]: 342 ukat kg-1
Specific activity [2]: 385 ukat kg-1

Oc1cc(O)c2c(c1)O[C@H](c1ccc(O)c(O)c1)[C@@H](O)[C@H]2O
Specific activity [1]: 138 ukat kg-1
Specific activity [2]: 181.5 ukat kg-1

Oc1cc(O)c2c(c1)O[C@@H](c1ccc(O)c(O)c1)[C@H](O)[C@H]2O.Oc1cc(O)c2c(c1)O[C@H](c1ccc(O)c(O)c1)[C@@H](O)[C@@H]2O (racemic)
Specific activity [1]: 145 ukat kg-1
Specific activity [2]: 188.4 ukat kg-1

Oc1cc(O)c2c(c1)O[C@@H](c1ccc(O)c(O)c1)[C@H](O)[C@@H]2O.Oc1cc(O)c2c(c1)O[C@H](c1ccc(O)c(O)c1)[C@@H](O)[C@H]2O (racemic)
Specific activity [1]: 41 ukat kg-1
Specific activity [2]: 84.1 ukat kg-1
